Test results taken from patent US12570642B2, “GLP-IR modulating compounds” (Gilead Sciences, Inc., priority 2021, dated 2026).

Target: GLP-1R (Homo sapiens, UniProt P43220)
Test: GLP-1R Activation - cAMP Assay
Assay type: cell-based
Settings: each compound run on one of the two cAMP assays (Assay 1 or Assay 2, not specified)
How it was run: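 CHO cells stably expressing GLP-1R, plated at 1,000 cells/well overnight, then equilibrated 1 h in HBSS with 20 mM Hepes and 0.1% BSA. Agonist added as 10-point dose response for 30 min at 37 °C. cAMP measured by HTRF (Cisbio Gs Dynamic kit); EC50 from sigmoidal fit.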

[1] = cAMP increase in CHO cells stably expressing GLP-1R

GLP-1R, sequence (P43220 24-463): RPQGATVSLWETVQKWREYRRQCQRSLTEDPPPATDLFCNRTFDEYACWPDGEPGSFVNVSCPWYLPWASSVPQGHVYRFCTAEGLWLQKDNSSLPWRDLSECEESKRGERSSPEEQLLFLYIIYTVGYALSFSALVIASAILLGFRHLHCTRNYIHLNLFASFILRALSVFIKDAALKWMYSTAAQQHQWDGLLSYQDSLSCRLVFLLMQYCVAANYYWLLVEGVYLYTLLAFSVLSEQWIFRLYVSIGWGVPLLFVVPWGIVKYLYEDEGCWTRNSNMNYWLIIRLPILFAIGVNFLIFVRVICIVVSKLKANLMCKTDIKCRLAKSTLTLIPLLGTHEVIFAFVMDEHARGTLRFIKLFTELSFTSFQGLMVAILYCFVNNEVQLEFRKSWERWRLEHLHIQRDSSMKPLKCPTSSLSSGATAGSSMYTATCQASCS

Compound	EC50 [1]	EC50 ([…])
CO[C@@]1(C)COC[C@H]1n1c(Cc2cc(F)c(-c3cccc(OCc4ccc(C#N)cc4F)n3)cc2F)nc2ccc(C(=O)O)cc21 (single isomer, unassigned) [Example 311A]	0.064 nM	
CC1(C)COC[C@H]1n1c(Cc2cc(F)c(-c3ccc(F)c(OCc4ccc(C#N)cc4F)n3)cc2F)nc2c(F)cc(C(=O)O)cc21 [Example 116, 2-[[4-[6-[(4-cyano-2-fluoro-phenyl)methoxy]-5-fluoro-2-pyridyl]-2,5-difluoro-phenyl]methyl]-3-[(3S)-4,4-dimethyltetrahydrofuran-3-yl]-7-fluorobenzimidazole-5-carboxylic Acid]	0.005 nM	
CC1(C)COC[C@H]1n1c(Cc2ccc(-c3ccnc(OCc4ccc(C#N)cc4F)n3)cc2F)nc2c(F)cc(C(=O)O)cc21 [Example 298, (S)-2-(4-(2-((4-cyano-2-fluorobenzyl)oxy)pyrimidin-4-yl)-2-fluorobenzyl)-1-(4,4-dimethyltetrahydrofuran-3-yl)-4-fluoro-1H-benzo[d]imidazole-6-carboxylic acid]	0.663 nM	
CC1(C)COC[C@H]1n1c(Cn2cc(F)c(-c3ccc(F)c(OCc4ccc(C#N)cc4F)n3)cc2=O)nc2ccc(C(=O)O)cc21 [Example 328, (S)-2-((6-((4-cyano-2-fluorobenzyl)oxy)-5,5′-difluoro-2′-oxo-[2,4′-bipyridin]-1′(2′H)-yl)methyl)-1-(4,4-dimethyltetrahydrofuran-3-yl)-1H-benzo[d]imidazole-6-carboxylic acid]	0.555 nM	
COCCn1c(Cc2c(F)cc(-c3ccc(F)c(OCc4cnc(-n5ccnn5)cc4Cl)n3)c(F)c2F)nc2c(F)cc(C(=O)O)cc21 [Example 213, 2-(4-(6-((4-chloro-6-(1H-1,2,3-triazol-1-yl)pyridin-3-yl)methoxy)-5-fluoropyridin-2-yl)-2,3,6-trifluorobenzyl)-4-fluoro-1-(2-methoxyethyl)-1H-benzo[d]imidazole-6-carboxylic acid]	0.042 nM	
CC1(C)COC[C@H]1n1c(Cc2ccc(-c3nc(OCc4ccc(C#N)cc4F)ccc3F)cc2F)nc2ccc(C(=O)O)cc21 [Example 364, (S)-2-(4-(6-((4-cyano-2-fluorobenzyl)oxy)-3-fluoropyridin-2-yl)-2-fluorobenzyl)-1-(4,4-dimethyltetrahydrofuran-3-yl)-1H-benzo[d]imidazole-6-carboxylic acid]	0.158 nM	
CC1(C)COC[C@H]1n1c(Cc2cc(F)c(-c3ccnc(OCc4ccc(C#N)cc4F)n3)cc2F)nc2c(F)cc(C(=O)O)cc21 [Example 205, (S)-2-(4-(2-((4-cyano-2-fluorobenzyl)oxy)pyrimidin-4-yl)-2,5-difluorobenzyl)-1-(4,4-dimethyltetrahydrofuran-3-yl)-4-fluoro-1H-benzo[d]imidazole-6-carboxylic acid]	0.097 nM	
Cn1cc(-c2ccc(COc3cccc(-c4cc(F)c(Cc5nc6ccc(C(=O)O)cc6n5[C@@H]5COCC5(C)C)cc4F)n3)c(F)c2)cn1 [Example 535, (S)-2-(2,5-difluoro-4-(6-((2-fluoro-4-(1-methyl-1H-pyrazol-4-yl)benzyl)oxy)pyridin-2-yl)benzyl)-1-(4,4-dimethyltetrahydrofuran-3-yl)-1H-benzo[d]imidazole-6-carboxylic acid]	0.099 nM	
CC1(C)COC[C@H]1n1c(Cc2cc(F)c(-c3ccnc(OCc4ccc(F)cc4)n3)cc2F)nc2ccc(C(=O)O)cc21 [Example 575, (S)-2-(2,5-difluoro-4-(2-((4-fluorobenzyl)oxy)pyrimidin-4-yl)benzyl)-1-(4,4-dimethyltetrahydrofuran-3-yl)-1H-benzo[d]imidazole-6-carboxylic acid]	0.186 nM	
Cn1cccc(COc2cccc(-c3cc(F)c(Cc4nc5ccc(C(=O)O)cc5n4[C@@H]4COCC4(C)C)cc3F)n2)c1=O [Example 426, (S)-2-(2,5-difluoro-4-(6-((1-methyl-2-oxo-1,2-dihydropyridin-3-yl)methoxy)pyridin-2-yl)benzyl)-1-(4,4-dimethyltetrahydrofuran-3-yl)-1H-benzo[d]imidazole-6-carboxylic acid]	1.48 nM	
COC[C@H]1COC[C@H]1n1c(Cc2cc(F)c(-c3ccc(F)c(OCc4ccc(C#N)cc4)n3)cc2F)nc2ccc(C(=O)O)cc21 [Example 467, 2-(4-(6-((4-cyanobenzyl)oxy)-5-fluoropyridin-2-yl)-2,5-difluorobenzyl)-1-((3S,4S)-4-(methoxymethyl)tetrahydrofuran-3-yl)-1H-benzo[d]imidazole-6-carboxylic acid]	0.077 nM	
CC1(C)OCCC1n1c(Cc2cc(F)c(-c3cccc(OCc4ccc(C#N)cc4F)n3)cc2F)nc2ccc(C(=O)O)cc21 (stereo not drawn) [Example 74, 2-(4-(6-((4-cyano-2-fluorobenzyl)oxy)pyridin-2-yl)-2,5-difluorobenzyl)-1-(2,2-dimethyltetrahydrofuran-3-yl)-1H-benzo[d]imidazole-6-carboxylic Acid]	4.38 nM	
CC1(C)COC[C@H]1n1c(Cc2cc(F)c(-c3ccc(F)c(OCc4ccc(Cl)cc4F)n3)cc2F)nc2ccc(C(=O)O)cc21 [Example 497, (S)-2-(4-(6-((4-chloro-2-fluorobenzyl)oxy)-5-fluoropyridin-2-yl)-2,5-difluorobenzyl)-1-(4,4-dimethyltetrahydrofuran-3-yl)-1H-benzo[d]imidazole-6-carboxylic acid]	0.206 nM	
Cn1cc(-c2ccc(COc3cccc(-c4cc(F)c(Cc5nc6ccc(C(=O)O)cc6n5[C@@H]5COCC5(C)C)cc4F)n3)cn2)nn1 [Example 550, (S)-2-(2,5-difluoro-4-(6-((6-(1-methyl-1H-1,2,3-triazol-4-yl)pyridin-3-yl)methoxy)pyridin-2-yl)benzyl)-1-(4,4-dimethyltetrahydrofuran-3-yl)-1H-benzo[d]imidazole-6-carboxylic acid]	0.066 nM	
CC1(C)COC[C@H]1n1c(Cc2c(F)cc(-c3cccc(OCc4ccc(C#N)cc4)n3)c(F)c2F)nc2c(F)cc(C(=O)O)cc21 [Example 244, (S)-2-(4-(6-((4-cyanobenzyl)oxy)pyridin-2-yl)-2,3,6-trifluorobenzyl)-1-(4,4-dimethyltetrahydrofuran-3-yl)-4-fluoro-1H-benzo[d]imidazole-6-carboxylic acid]	0.015 nM	
N#Cc1ccc(COc2cccc(-c3cc(F)c(Cc4nc5ccc(C(=O)O)cc5n4[C@@H]4COC[C@@H]4COC(F)F)cc3F)n2)c(F)c1 [Example 185, 2-(4-(6-((4-cyano-2-fluorobenzyl)oxy)pyridin-2-yl)-2,5-difluorobenzyl)-1-((3S,4R)-4-((difluoromethoxy)methyl)tetrahydrofuran-3-yl)-1H-benzo[d]imidazole-6-carboxylic Acid]	0.594 nM	
CC1(C)COCC1n1c(Cc2cc(F)c(-c3cccc(OCc4ccc(C#N)cc4F)n3)cc2F)nc2ccc(C(=O)O)cc21 (stereo not drawn) [Example 78, 2-(4-(6-((4-cyano-2-fluorobenzyl)oxy)pyridin-2-yl)-2,5-difluorobenzyl)-1-(4,4-dimethyltetrahydrofuran-3-yl)-1H-benzo[d]imidazole-6-carboxylic Acid]	0.36 nM	
CC1(C)COCC1n1c(Cc2cc(F)c(-c3ccc(F)c(OCc4ccc(C#N)cc4F)n3)cc2Cl)nc2ccc(C(=O)O)cc21 (stereo not drawn) [Example 345, 2-(2-chloro-4-(6-((4-cyano-2-fluorobenzyl)oxy)-5-fluoropyridin-2-yl)-5-fluorobenzyl)-1-(4,4-dimethyltetrahydrofuran-3-yl)-1H-benzo[d]imidazole-6-carboxylic acid]	0.197 nM	
Cn1nnc2ccc(COc3cccc(-c4cc(F)c(Cc5nc6ccc(C(=O)O)cc6n5C[C@@H]5CCO5)cc4F)n3)cc21 [Example 525, (S)-2-(2,5-difluoro-4-(6-((1-methyl-1H-benzo[d][1,2,3]triazol-6-yl)methoxy)pyridin-2-yl)benzyl)-1-(oxetan-2-ylmethyl)-1H-benzo[d]imidazole-6-carboxylic acid]	0.429 nM	
CC(=O)N[C@@H]1COC[C@@H]1n1c(Cc2cc(F)c(-c3cccc(OCc4ccc(C#N)cc4F)n3)cc2F)nc2ccc(C(=O)O)cc21 [Example 17, 1-((3R,4S)-4-acetamidotetrahydrofuran-3-yl)-2-(4-(6-((4-cyano-2-fluorobenzyl)oxy)pyridin-2-yl)-2,5-difluorobenzyl)-1H-benzo[d]imidazole-6-carboxylic Acid]		5.61 nM
COC(=O)N1Cc2ccc(COc3cccc(-c4cc(F)c(Cc5nc6ccc(C(=O)O)cc6n5C[C@@H]5CCO5)cc4F)n3)cc2C1 [Example 521, (S)-2-(2,5-difluoro-4-(6-((2-(methoxycarbonyl)isoindolin-5-yl)methoxy)pyridin-2-yl)benzyl)-1-(oxetan-2-ylmethyl)-1H-benzo[d]imidazole-6-carboxylic acid]	0.111 nM	
COCCn1c(Cc2cc(F)c(-c3cccc(OCc4ccc(-c5cc(C(F)(F)F)nn5C)cc4F)n3)cc2F)nc2ccc(C(=O)O)cc21 [Example 102, 2-(2,5-difluoro-4-(6-((2-fluoro-4-(1-methyl-3-(trifluoromethyl)-1H-pyrazol-5-yl)benzyl)oxy)pyridin-2-yl)benzyl)-1-(2-methoxyethyl)-1H-benzo[d]imidazole-6-carboxylic Acid]	22.8 nM	
N#Cc1ccc(COc2cccc(-c3cc(F)c(Cc4nc5ccc(C(=O)O)cc5n4CC4(C5CC5)CCCO4)cc3F)n2)c(F)c1 (stereo not drawn) [Example 273, 2-(4-(6-((4-cyano-2-fluorobenzyl)oxy)pyridin-2-yl)-2,5-difluorobenzyl)-1-((2-cyclopropyltetrahydrofuran-2-yl)methyl)-1H-benzo[d]imidazole-6-carboxylic acid]	0.942 nM	
N#Cc1ccc(COc2cccc(-c3cc(F)c(Cc4nc5ccc(C(=O)O)cc5n4[C@@H]4COC[C@@H]4C4CC4)cc3F)n2)c(F)c1 [Example 191, 2-(4-(6-((4-cyano-2-fluorobenzyl)oxy)pyridin-2-yl)-2,5-difluorobenzyl)-1-((3S,4R)-4-cyclopropyltetrahydrofuran-3-yl)-1H-benzo[d]imidazole-6-carboxylic acid]	0.353 nM	
